Laboratory results taken from US20220281831A1, “FUSED-GLUTARIMIDE CRBN LIGANDS AND USES THEREOF” (Kymera Therapeutics, Inc., priority 2019, published 2022).

Molecular target: His-tagged CRBN-DDB1 complex (Homo sapiens, UniProt Q96SW2)
Test: Time-Resolved Fluorescence Resonance Energy Transfer (TR-FRET / HTRF) CRBN binding assay, displacement of Cy5-labeled thalidomide
Details: His-CRBN-DDB1, Cy5-thalidomide 8 nM, 1 hour room temperature
Description: Time-Resolved Fluorescence Resonance Energy Transfer (TR-FRET) Assay.
Equal volumes of His-tagged CRBN-DDB1 complex (56 nM) was mixed with Eu-cryptate labeled Anti-6HIS-monoclonal antibody (50× dilution from the commercial stock solution, Vender: Cisbio, Cat. #61HI2KLA) in a final buffer containing 20 mM HEPES pH 7.0, 150 mM NaCl, 0.005% Tween-20. […] The mixture were incubated at room temperature for 1 hour. FRET signals were measured on an EnVision plate reader (Perkin Elmer) by exciting at 340 nm and recording emission at both 615 nm as no FRET control and 665 nm as the FRET signals with a 60 microsecond delay. FRET efficiency was calculated as the ratio of fluorescent signals at […]. Quantitative loss of FRET efficiency as a function of compound concentrations was fitted by a four-parameter Logistic Function using GraphPad Prism 7.0 and the IC50 values were reported for each compound.
The compound numbers correspond to the compound numbers in Table 1.

Sequence of His-tagged CRBN-DDB1 complex (Q96SW2 whole entry): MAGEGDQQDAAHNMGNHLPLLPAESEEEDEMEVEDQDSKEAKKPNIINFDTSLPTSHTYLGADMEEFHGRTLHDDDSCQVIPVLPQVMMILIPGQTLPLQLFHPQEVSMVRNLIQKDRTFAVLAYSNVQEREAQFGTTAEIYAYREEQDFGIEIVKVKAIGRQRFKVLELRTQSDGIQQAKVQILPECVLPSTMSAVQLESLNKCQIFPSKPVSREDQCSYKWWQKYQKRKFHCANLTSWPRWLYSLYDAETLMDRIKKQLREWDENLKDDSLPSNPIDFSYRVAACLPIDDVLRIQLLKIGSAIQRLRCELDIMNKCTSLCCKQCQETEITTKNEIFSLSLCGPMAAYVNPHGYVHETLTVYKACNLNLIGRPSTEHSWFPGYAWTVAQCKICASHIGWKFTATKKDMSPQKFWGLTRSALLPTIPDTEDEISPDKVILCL
Sequence of His-tagged CRBN-DDB1 complex (Q16531 whole entry partner): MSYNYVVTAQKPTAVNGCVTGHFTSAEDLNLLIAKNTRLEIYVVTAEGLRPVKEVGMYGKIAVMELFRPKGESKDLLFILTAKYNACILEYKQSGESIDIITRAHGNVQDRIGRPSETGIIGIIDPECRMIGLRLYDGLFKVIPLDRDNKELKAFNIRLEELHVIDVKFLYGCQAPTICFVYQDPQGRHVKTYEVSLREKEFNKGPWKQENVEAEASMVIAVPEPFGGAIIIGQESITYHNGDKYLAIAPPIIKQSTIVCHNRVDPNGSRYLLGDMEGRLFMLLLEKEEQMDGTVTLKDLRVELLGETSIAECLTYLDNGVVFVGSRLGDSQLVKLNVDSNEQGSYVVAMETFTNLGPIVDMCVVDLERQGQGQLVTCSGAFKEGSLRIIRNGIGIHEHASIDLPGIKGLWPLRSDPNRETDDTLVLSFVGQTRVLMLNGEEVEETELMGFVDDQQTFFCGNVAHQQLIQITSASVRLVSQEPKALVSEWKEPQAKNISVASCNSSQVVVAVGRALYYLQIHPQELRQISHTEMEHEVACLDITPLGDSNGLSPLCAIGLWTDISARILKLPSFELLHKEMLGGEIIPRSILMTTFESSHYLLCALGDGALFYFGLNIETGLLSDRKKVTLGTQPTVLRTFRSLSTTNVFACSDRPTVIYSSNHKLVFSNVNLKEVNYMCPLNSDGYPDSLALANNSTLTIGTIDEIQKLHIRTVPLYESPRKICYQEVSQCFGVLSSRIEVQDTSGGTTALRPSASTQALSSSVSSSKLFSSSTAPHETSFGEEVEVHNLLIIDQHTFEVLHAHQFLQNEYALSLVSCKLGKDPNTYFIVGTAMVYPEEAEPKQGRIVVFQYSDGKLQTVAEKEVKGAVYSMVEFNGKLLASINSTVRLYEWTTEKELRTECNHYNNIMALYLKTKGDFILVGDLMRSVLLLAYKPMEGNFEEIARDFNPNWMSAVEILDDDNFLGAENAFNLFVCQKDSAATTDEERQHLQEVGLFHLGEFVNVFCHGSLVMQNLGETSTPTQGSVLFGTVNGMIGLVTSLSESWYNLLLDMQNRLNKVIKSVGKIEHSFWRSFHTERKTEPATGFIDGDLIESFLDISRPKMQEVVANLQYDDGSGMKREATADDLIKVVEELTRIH

Compound | IC50 [µM]
O=C1CC2(CCN(c3cccc4cnccc34)CC2)CC(=O)N1 [Compound I-104] | > 100
O=C1NC(=O)[C@@H]2CN(Cc3cccc(O)c3)C[C@H]12 [Compound I-287] | > 100
O=C1CC2(CCN(c3ccc4c(c3)OCO4)CC2)CC(=O)N1 [Compound I-119] | > 100
O=C1CC2(CCN(C(=O)c3cnccn3)CC2)CC(=O)N1 [Compound I-359] | > 100
O=C1NC(=O)[C@@H]2CN(C(=O)c3cncs3)C[C@H]12 [Compound I-318] | > 100
O=C1CC2(CCN(Cc3ccc(Cl)cc3)CC2)CC(=O)N1 [Compound I-343] | > 100
O=c1[nH]c(=O)c2c(Br)cccc2[nH]1 [Compound I-56, 5-Bromo-1,3-dihydroquinazoline-2,4-dione] | > 100
O=c1[nH]c(=O)c2cc(Br)ccc2[nH]1 [Compound I-55, 6-Bromo-1,3-dihydroquinazoline-2,4-dione] | > 100
O=C1CC2(CCN(Cc3c[nH]cn3)CC2)CC(=O)N1 [Compound I-339] | > 100
COc1ccc2cc(N3C[C@@H]4C(=O)NC(=O)[C@@H]4C3)ccc2c1 [Compound I-155] | > 100
O=C1NC(=O)[C@@H]2CN(Cc3ccc[nH]3)C[C@H]12 [Compound I-300] | > 100
COc1ccc(CN2CCC3(CC2)CC(=O)NC(=O)C3)cn1 [Compound I-345] | > 100
O=C1NC(=O)[C@@H]2CN(c3cccc(OC(F)(F)F)c3)C[C@H]12 [Compound I-139] | > 100
O=C1NC(=O)[C@@H]2CNC[C@H]12 [Compound I-327] | > 100
Cn1c(=O)[nH]c(=O)c2cc(Br)ccc21 [Compound I-59, 6-bromo-1-methyl-3H-quinazoline-2,4-dione] | > 100
O=C1CC2(CCN(c3cccc(OC(F)(F)F)c3)CC2)CC(=O)N1 [Compound I-102] | > 100
NC(=O)c1ccc(N2CCC3(CC2)CC(=O)NC(=O)C3)cc1 [Compound I-116] | > 100
COc1ccc2cc(N3CCC4(CC3)CC(=O)NC(=O)C4)ccc2c1 [Compound I-117] | > 100
O=C1CCc2cccc(Oc3ccccc3)c2C(=O)N1 [Compound I-209, 9-Phenoxy-4,5-dihydro-2H-2-benzazepine-1,3-dione] | > 100
O=C1NC(=O)[C@@H]2CN(Cc3c[nH]cn3)C[C@H]12 [Compound I-297] | > 100
O=C1CC2(CCN(C(=O)c3ccnc(Cl)c3)CC2)CC(=O)N1 [Compound I-373] | > 100

Compound | IC50 [µM]
CC(=O)Nc1ccc2c(c1)C(=O)NC2=O [Compound I-326] | > 100
CS(=O)(=O)c1cccc(N2C[C@@H]3C(=O)NC(=O)[C@@H]3C2)c1 [Compound I-180] | > 100
O=C1NC(=O)[C@@H]2CN(c3ccc(OC(F)(F)F)cc3)C[C@H]12 [Compound I-142] | > 100
O=C1CC2(CCN(C(=O)c3c[nH]cn3)CC2)CC(=O)N1 [Compound I-354] | > 100
O=C1CC2(C(=O)N1)C(=O)Nc1ccccc12 (centres unmarked) [Compound I-174] | > 100
O=C1CC2(CCN(C(=O)c3cccs3)CC2)CC(=O)N1 [Compound I-348] | > 100
CN(C)c1ccc(CN2CCC3(CC2)CC(=O)NC(=O)C3)cc1 [Compound I-332] | > 100
O=C1CC2(CCN(c3ccc(-c4ccccc4)c(F)c3)CC2)CC(=O)N1 [Compound I-160] | > 100
Cc1cccc(N2C[C@@H]3C(=O)NC(=O)[C@@H]3C2)c1 [Compound I-161] | > 100
O=C1NC(=O)[C@@H]2CN(C(=O)c3ccc4ccoc4c3)C[C@H]12 [Compound I-320] | > 100
O=C1NC(=O)c2cc(NC(=O)N3CCCCC3)ccc21 [Compound I-283] | > 100
O=C1NC(=O)[C@@H]2CN(c3ccc(-c4ccccc4)c(F)c3)C[C@H]12 [Compound I-120] | > 100
O=C1NC(=O)[C@@H]2CN(c3ccc(OCc4ccccc4)cc3)C[C@H]12 [Compound I-128] | > 100
Cc1ccc(CN2C[C@@H]3C(=O)NC(=O)[C@@H]3C2)o1 [Compound I-314] | > 100
O=C1NC(=O)[C@@H]2CN(C(=O)COCc3ccccc3)C[C@H]12 [Compound I-303] | > 100
Cc1ccc(N2CCC3(CC2)CC(=O)NC(=O)C3)cc1 [Compound I-93] | > 100
O=C1CC2(CCN(C3CCCC3)CC2)CC(=O)N1 [Compound I-351] | > 100
O=Cc1ccc(N2C[C@@H]3C(=O)NC(=O)[C@@H]3C2)cc1 [Compound I-149] | > 100
O=C1CC2(CCN(Cc3cc4ccccc4o3)CC2)CC(=O)N1 [Compound I-333] | > 100
Cc1cccc(CC(=O)N2C[C@@H]3C(=O)NC(=O)[C@@H]3C2)c1 [Compound I-305] | > 100
O=C1CC2(CCN(Cc3ccc([N+](=O)[O-])s3)CC2)CC(=O)N1 [Compound I-330] | 30 to 100

Compound | IC50 [µM]
O=C1CC2(CCN(c3cccc(F)c3)CC2)CC(=O)N1 [Compound I-99] | > 100
O=C1NC(=O)[C@@H]2CN(c3cccc(Cl)c3)C[C@H]12 [Compound I-126] | > 100
O=C1CC2(CCN(c3ccc4c(c3)CCO4)CC2)CC(=O)N1 [Compound I-118] | > 100
COC(=O)c1ccc(N2C[C@@H]3C(=O)NC(=O)[C@@H]3C2)cc1 [Compound I-122] | > 100
O=C(NC1CC1)c1ccc(N2C[C@@H]3C(=O)NC(=O)[C@@H]3C2)cc1 [Compound I-127] | > 100
O=C1NC(=O)[C@@H]2CN(c3cccc4ncccc34)C[C@H]12 [Compound I-131] | > 100
Nc1ccc(N2C[C@@H]3C(=O)NC(=O)[C@@H]3C2)cc1 [Compound I-150] | > 100
Cc1cc(C(=O)N2C[C@@H]3C(=O)NC(=O)[C@@H]3C2)ccn1 [Compound I-310] | > 100
CC(C)Oc1cccc(N2C[C@@H]3C(=O)NC(=O)[C@@H]3C2)c1 [Compound I-137] | > 100
O=C1NC(=O)[C@@H]2CN(C(=O)c3cccnn3)C[C@H]12 [Compound I-304] | > 100
O=C1NC(=O)[C@@H]2CN(Cc3cc4ccccc4o3)C[C@H]12 [Compound I-316] | 30 to 100
O=C1CC2(CCN(Cc3ccncc3)CC2)CC(=O)N1 [Compound I-363] | > 100
CCOC(=O)c1cccc(N2CCC3(CC2)CC(=O)NC(=O)C3)c1 [Compound I-96] | > 100
O=C1NC(=O)[C@@H]2CN(c3ccccc3Cl)C[C@H]12 [Compound I-153] | > 100
O=C1CC2(CCN(C(=O)c3ccn[nH]3)CC2)CC(=O)N1 [Compound I-341] | > 100
O=C1NC(=O)[C@@H]2CN(CCc3ccccc3)C[C@H]12 [Compound I-298] | > 100
CC(=O)Nc1cccc(N2C[C@@H]3C(=O)NC(=O)[C@@H]3C2)c1 [Compound I-136] | > 100
O=C1CC2(CCN(Cc3ccc(F)c4ccccc34)CC2)CC(=O)N1 [Compound I-336] | > 100
O=C1CC2(CCN(C(=O)c3cccnn3)CC2)CC(=O)N1 [Compound I-350] | > 100
O=C1NC(=O)[C@@H]2CN(Cc3cccc4cccnc34)C[C@H]12 [Compound I-315] | > 100
